Data on 17 compounds can be found in publication PMC6273488, “Synthesis and Biological Evaluation of Benzochromenopyrimidinones as Cholinesterase Inhibitors and Potent Antioxidant, Non-Hepatotoxic Agents for Alzheimer’s Disease” (Molecules, 2016).

One may read the IC50 as the point on the concentration scale where inhibition reaches its midpoint. Read a low IC50 as higher potency. In general, inhibition refers to the share of the control response that was lost under treatment. Read a high inhibition as a strong effect. What is called Papp is a coefficient for how fast a substance crosses the barrier.

SMILES strings stand for the structures. Read-outs that look alike come from different tables or passages of the source.

Data set [1] has as its target T1, Electrophorus electricus AChE (EeAChE) (Electrophorus electricus, UniProt O42275).
T1 construct: purified AChE from Electrophorus electricus (Type V-S, Sigma-Aldrich); purchased Sigma-Aldrich Type V-S
Description: Inhibition of EeAChE (Ellman's assay). Type of data set: biochemical. The following applies: mean ± SEM, at least three independent experiments. The method, then:
(§1) For the preliminary screening of the inhibitory potencies, Electrophorus electricus AChE (EeAChE) and horse serum BuChE (eqBuChE) were used following the Ellman’s assay.
(§2) Assessment of the inhibitory power of BCPOs was performed following the spectrophotometric method of Ellman using purified AChE from Electrophorus electricus (Type V-S, Sigma-Aldrich) or BuChE from horse serum (lyophilized powder, Sigma-Aldrich). Enzymes were first dissolved in 0.1 M phosphate buffer (pH 8.0) and then aliquoted in small vials for easy handling. Compounds stock solutions in DMSO (10 mM) were diluted when necessary with DMSO to prepare appropriate dilutions of each compound. The assay was performed in a final volume of 3 mL of a 0.1 M phosphate-buffered solution at pH 8.0, containing 5,5′-dithiobis-2-nitrobenzoic acid (DTNB, 2625 µL, 0.35 mM, final concentration), EeAChE (29 µL, 0.035 U/mL final concentration) or eqBuChE (60 µL, 0.05 U/mL final concentration) tested compound (3 µL, different concentrations) and 1% (w/v) Bovine Albumin Serum phosphate-buffered (pH 8.0) solution (BSA, 40 µL). The inhibition in comparison to control without compound was determined by pre-incubating this blend at room temperature with each compound at nine different concentrations for 10 min. Then, acetylthiocholine iodide (105 µL, 0.35 mM, final concentration) or butyrylthiocholine iodide (150 µL, 0.5 mM final concentration) was added and incubated for another 15 min at rt. […] Calculation of IC50 values was performed with GraphPad Prism 5. Each concentration was measured in triplicate. Data are expressed as mean ± SEM.

The target in data set [2] is T2, horse serum BuChE (eqBuChE) (Equus caballus, UniProt P81908).
T2 construct: BuChE from horse serum (lyophilized powder, Sigma-Aldrich); purchased Sigma-Aldrich; host or cells: horse serum
T2 sequence (P81908 whole entry): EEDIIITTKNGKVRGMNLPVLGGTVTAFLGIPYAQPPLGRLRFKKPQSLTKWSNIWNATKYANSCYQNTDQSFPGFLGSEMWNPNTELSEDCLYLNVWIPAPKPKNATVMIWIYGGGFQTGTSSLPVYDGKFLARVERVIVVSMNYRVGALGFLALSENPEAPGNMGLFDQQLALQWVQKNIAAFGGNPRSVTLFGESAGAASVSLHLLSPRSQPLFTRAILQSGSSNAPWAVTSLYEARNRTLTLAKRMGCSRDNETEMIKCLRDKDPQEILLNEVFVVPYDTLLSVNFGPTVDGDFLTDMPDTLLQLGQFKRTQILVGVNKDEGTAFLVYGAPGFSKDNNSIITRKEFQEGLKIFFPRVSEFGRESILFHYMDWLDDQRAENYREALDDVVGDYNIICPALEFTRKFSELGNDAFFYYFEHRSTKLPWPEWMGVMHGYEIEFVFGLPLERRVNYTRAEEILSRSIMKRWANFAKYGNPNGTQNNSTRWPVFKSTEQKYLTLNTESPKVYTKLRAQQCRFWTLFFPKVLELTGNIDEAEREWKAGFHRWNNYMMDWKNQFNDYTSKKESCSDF
Description: Inhibition of eqBuChE (Ellman's assay). The following applies: 10 µM compound. Type of data set: biochemical. As to the method: as §1, §2
(In general: In Ellman's method for cholinesterases, released thiocholine reacts with DTNB.)

Data set [3] in a line: Oxygen radical absorbance capacity by fluorescence (ORAC-FL). The following applies: mean ± SD. As to the method:
Trolox was used as standard, fluorescein as fluorescent probe and 2,2′-azobis(2-amidinopropane) dihydrochloride (AAPH) as the peroxyl radical source. Ferulic acid was used as a positive control.
The antioxidant power of BCPOs was determined following the ORAC-FL method using fluorescein as the fluorescent probe. (±)-6-Hydroxy-2,5,7,8-tetramethylchromane-2-carboxylic acid (Trolox), fluorescein (FL) and AAPH were bought from Sigma-Aldrich (Saint Louis, MO, USA). A Varioskan Flash plate reader with built-in injectors (Thermo Scientific, Waltham, MA, USA) was used. The final volume reaction mixture was 200 µL and the reaction was carried out at 37 °C in 75 mM phosphate buffer (pH 7.4). The tested compounds and Trolox standard were dissolved in DMSO to 10 mM and further diluted in phosphate buffer. The final concentrations were 0.1–1 µM for the tested compounds and 1–8 µM for Trolox standard. The blank was composed of 120 µL of FL, 60 µL of AAPH and 20 µL of phosphate buffer (pH = 7.4) and was added in each assay. The antioxidant (20 µL) and fluorescein (FL, 120 µL, final concentration of 70 nM) were incubated in a black 96-well microplate Nunc, purchazed from Thermo Fisher Scientific, Ecublens, Switzerland) for 15 min at 37 °C. Then, AAPH, 60 µL, final concentration of 12 mM) solution was added quickly using the built-in injector. […] The microplate was automatically shaken prior to each reading. All the experiments were made in triplicate and at least three different assays were performed for each sample.
Using MS Excel software, regression equations were extrapolated by plotting the net AUC against the antioxidant concentration. The ORAC values were then obtained by dividing the slope of the latter curve between the slope of the Trolox curve obtained in the same assay. Final ORAC values were expressed as Trolox equivalents. Data are expressed as mean ± SD.

For data set [4] the following is noted: ORAC-FL, cited from earlier work.
The nature of a further data set: in vitro. The following applies: for Papp: PAMPA, pH 7.4. The method, then:
Penetration across the BBB is an essential property for compounds targeting the CNS. […] The filter membrane of the donor plate was coated with PBL (Polar Brain Lipid, Avanti, AL, USA) in dodecane (4 µL of 20 mg/mL PBL in dodecane) and the acceptor well was filled with 300 µL of PBS pH 7.4 buffer ([…]). Tested compounds were dissolved first in DMSO and that diluted with PBS pH 7.4 to reach the final concentration 100 µM in the donor well. […] 300 µL of the donor solution was added to the donor wells ([…]) and the donor filter plate was carefully put on the acceptor plate so that coated membrane was “in touch” with both donor solution and acceptor buffer. Test compound diffused from the donor well through the lipid membrane (Area = 0.28 cm^2) to the acceptor well. The concentration of the drug in both donor and the acceptor wells was assessed after 3, 4, 5 and 6 h of incubation in quadruplicate using the UV plate reader Synergy HT (Biotek, Winooski, VT, USA) at the maximum absorption wavelength of each compound.

T1 sequence (O42275 24-633): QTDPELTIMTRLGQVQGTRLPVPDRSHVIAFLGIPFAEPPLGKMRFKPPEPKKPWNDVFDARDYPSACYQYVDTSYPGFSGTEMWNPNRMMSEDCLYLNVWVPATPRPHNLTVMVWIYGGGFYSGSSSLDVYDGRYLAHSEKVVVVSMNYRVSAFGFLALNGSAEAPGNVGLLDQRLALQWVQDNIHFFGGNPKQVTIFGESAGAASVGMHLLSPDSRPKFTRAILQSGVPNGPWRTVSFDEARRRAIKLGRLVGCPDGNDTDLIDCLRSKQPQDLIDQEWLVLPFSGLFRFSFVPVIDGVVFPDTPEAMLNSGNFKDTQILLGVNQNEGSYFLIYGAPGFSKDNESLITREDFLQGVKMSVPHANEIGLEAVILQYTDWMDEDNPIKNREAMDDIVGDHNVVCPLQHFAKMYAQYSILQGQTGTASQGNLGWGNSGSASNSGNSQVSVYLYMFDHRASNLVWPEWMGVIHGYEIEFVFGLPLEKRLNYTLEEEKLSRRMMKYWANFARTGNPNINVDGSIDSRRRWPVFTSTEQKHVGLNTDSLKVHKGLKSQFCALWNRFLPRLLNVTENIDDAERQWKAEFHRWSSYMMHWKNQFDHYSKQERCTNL

`O=c1c2c(nc3n1CCC3)Oc1ccc3ccccc3c1C2c1ccccc1` (centres unmarked) [3Aa, 14-Phenyl-10,11-dihydro-14H-benzo[5,6]chromeno[2,3-d]pyrrolo[1,2-a]pyrimidin-13(9H)-one] came in with an IC50 in data set [1] of 518 ± 87.9 nM. The compound further came in with an inhibition at 10 µM in data set [2] of 12.1 ± 1.4%. The same compound returned an ORAC in data set [3] of 2.6 ± 0.1 Trolox equivalents.
For the compound `O=c1c2c(nc3n1CCCCC3)Oc1ccc3ccccc3c1C2c1ccccc1` (centres unmarked) [3Ac, 16-Phenyl-10,11,12,13,-tetrahydro-16H-benzo[5,6]chromeno[2′,3′,4,5]pyrimido[1,2-a]azepin-15(9H)-one], the IC50 in data set [1] was 301 ± 6.5 nM. In data set [2], the inhibition at 10 µM stood at 28.4 ± 7.3%. For the same compound, the ORAC in data set [3] came out at 2.5 ± 0.2 Trolox equivalents.
In the same order, the values of `COc1cccc(C2c3c(nc4n(c3=O)CCCCC4)Oc3ccc4ccccc4c32)c1` (centres unmarked) [3Bc, 16-(3′-Methoxyphenyl)-10,11,12,13-tetrahydro-16H-benzo[5,6]chromeno[2′,3′,4,5]pyrimido[1,2-a]azepin-15(9H)-one] are 108 ± 7.2 nM, under 10% and 3.5 ± 0.3 Trolox equivalents.
Take `Cc1ccc(C2c3c(nc4n(c3=O)CCC4)Oc3ccc4ccccc4c32)cc1` (centres unmarked) [3Ca, 14-(4′-Methylphenyl)-10,11-dihydro-14H-benzo[5,6]chromeno[2,3-d]pyrrolo[1,2-a]pyrimidin-13(9H)-one]: half-maximal inhibition in data set [1] (IC50) was put at 112 ± 21.7 nM. Besides, the inhibition at 10 µM in data set [2] came out at 17.4 ± 1.8%. In data set [3], this compound returned an ORAC of 2.7 ± 0.3 Trolox equivalents.
In the same order, the values of `Cc1ccc(C2c3c(nc4n(c3=O)CCCCC4)Oc3ccc4ccccc4c32)cc1` (centres unmarked) [3Cc, 16-(4’-Methylphenyl)-10,11,12,13-tetrahydro-16H-benzo[5,6]chromeno[2′,3′,4,5]pyrimido[1,2-a]azepin-15(9H)-one] are 167 ± 7.8 nM, under 10% and 3.1 ± 0.2 Trolox equivalents.
For `O=c1c2c(nc3n1CCC3)Oc1c(ccc3ccccc13)C2c1ccccc1` (centres unmarked) [4Aa, 7-Phenyl-11,12-dihydro-7H-benzo[7,8]chromeno[2,3-d]pyrrolo[1,2-a]pyrimidin-8(10H)-one] the same measures were 318 ± 26 nM, 23.1 ± 3.1% and 2.1 ± 0.1 Trolox equivalents.
Compound `O=c1c2c(nc3n1CCCC3)Oc1c(ccc3ccccc13)C2c1ccccc1` (centres unmarked) [4Ab, 7-Phenyl-10,11,12,13-tetrahydro-7H-benzo[7,8]chromeno[2,3-d]pyrido[1,2-a]pyrimidin-8-one] came in with an IC50 in data set [1] of 384 ± 19.4 nM. The compound also displayed an inhibition at 10 µM in data set [2] of 54.6 ± 1.8%. The ORAC in data set [3] was found to be 2.3 ± 0.2 Trolox equivalents.
In data set [1], `O=c1c2c(nc3n1CCCCC3)Oc1c(ccc3ccccc13)C2c1ccccc1` (centres unmarked) [4Ac, 7-Phenyl-11,12,13,14-tetrahydro-7H-benzo[7,8]chromeno[2′,3′,4,5]pyrimido[1,2-a]azepin-8(10H)-one] displayed an IC50 of 290 ± 8.3 nM. In data set [2], this compound displayed an inhibition at 10 µM of 24.2 ± 3.1%. The same compound showed an ORAC in data set [3] of 2.5 ± 0.1 Trolox equivalents.
For `COc1cccc(C2c3ccc4ccccc4c3Oc3nc4n(c(=O)c32)CCC4)c1` (centres unmarked) [4Ba, 7-(3′-Methoxyphenyl)-11,12-dihydro-7H-benzo[7,8]chromeno[2,3-d]pyrrolo[1,2-a]pyrimidin-8(10H)-one] the same measures were 327 ± 38.9 nM, 38 ± 1.6% and 3.8 ± 0.1 Trolox equivalents.
Regarding `COc1cccc(C2c3ccc4ccccc4c3Oc3nc4n(c(=O)c32)CCCC4)c1` (centres unmarked) [4Bb, 7-(3′-Methoxyphenyl)-10,11,12,13-tetrahydro-7H-benzo[7,8]chromeno[2,3-d]pyrido[1,2-a]pyrimidin-8-one], in data set [1], the IC50 was found to be 153 ± 3.1 nM. Further, the inhibition at 10 µM in data set [2] was under 10%. Further, in data set [3], the ORAC is recorded as 3.7 ± 0.2 Trolox equivalents.
In the same order, the values of `COc1cccc(C2c3ccc4ccccc4c3Oc3nc4n(c(=O)c32)CCCCC4)c1` (centres unmarked) [4Bc, 7-(3′-Methoxyphenyl)-11,12,13,14-tetrahydro-7H-benzo[7,8]chromeno[2′,3′,4,5]pyrimido[1,2-a]azepin-8(10H)-one] are 195 ± 6.2 nM, 31.1 ± 2.1% and 3.4 ± 0.2 Trolox equivalents.
In the same order, the values of `Cc1ccc(C2c3ccc4ccccc4c3Oc3nc4n(c(=O)c32)CCC4)cc1` (centres unmarked) [4Ca, 7-(4′-Methylphenyl)-11,12-dihydro-7H-benzo[7,8]chromeno[2,3-d]pyrrolo[1,2-a]pyrimidin-8(10H)-one] are 116 ± 6.2 nM, 26.8 ± 2.9% and 3.2 ± 0.1 Trolox equivalents.
For `Cc1ccc(C2c3ccc4ccccc4c3Oc3nc4n(c(=O)c32)CCCC4)cc1` (centres unmarked) [4Cb, 7-(4′-Methylphenyl)-10,11,12,13-tetrahydro-7H-benzo[7,8]chromeno[2,3-d]pyrido[1,2-a]pyrimidin-8-one], the concentration for half-maximal inhibition (IC50) in data set [1] was 193 ± 18.7 nM. In data set [2], this compound yielded an inhibition at 10 µM of 24.4 ± 1.2%. This compound also had an ORAC in data set [3] of 2.9 ± 0.1 Trolox equivalents.
In the same order, the values of `Cc1ccc(C2c3ccc4ccccc4c3Oc3nc4n(c(=O)c32)CCCCC4)cc1` (centres unmarked) [4Cc, 17-(4′-Methylphenyl)-11,12,13,14-tetrahydro-7H-benzo[7,8]chromeno[2′,3′,4,5]pyrimido[1,2-a]azepin-8(10H)-one] are 174 ± 5.9 nM, under 10% and 3.6 ± 0.2 Trolox equivalents.
On to `COc1cc(/C=C/C(=O)O)ccc1O` [Ferulic acid], for which the values for the ORAC in data set [4] and in data set [4] (listed as ferulic acid) were 3.7 ± 0.1 [22] Trolox equivalents and 3.7 Trolox equivalents, respectively.
On to `CN1C(C(=O)Nc2ccccn2)=C(O)c2ccccc2S1(=O)=O` [Piroxicam, reference compound], for which the apparent permeability coefficient (Papp) in “in vitro” was 2.2 ± 0.15 ×10⁻⁶ cm/s. In “in vitro” (PAMPA-BBB class), the “BBB Penetration Estimation CNS (+/−)” value is listed as “CNS (+/−) (‘CNS (+/−) (BBB permeability uncertain); Pe (10^−6 cm·s^−1) from 4.0 to 2.0)”.
Turning to `CCN(C)C(=O)Oc1cccc([C@H](C)N(C)C)c1` [Rivastigmine, reference compound], in the data set “in vitro”, the apparent permeability coefficient (Papp) came out at 6.6 ± 0.5 ×10⁻⁶ cm/s.
